Data on 79 molecules can be found in the METLIN SMRT retention time set (Domingo-Almenara et al. 2019).

SMILES strings stand for the structures.

This data set is described as follows: gradient 5% acetonitrile 3 min, to 50% in 2 min, to 85% in 15 min, held 3 min, 100 µL/min. The settings on record: column: Zorbax Extend-C18 2.1 x 50 mm; eluents: water / acetonitrile, 0.1% formic acid. The essentials: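 In both positive and negative ionization mode, a quadrupole time-of-flight mass spectrometer coupled to HPLC analyzed pure standards run in mixtures of ~100 molecules. The Zorbax Extend-C18 column (2.1 × 50 mm, 1.8 μm) was operated at 100 μL/min with water and acetonitrile, each containing 0.1% formic acid. The dead volume was 40 μL and the dwell volume 900 μL. Retention time came from adduct peaks that were computationally picked and individually inspected by hand.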
Consider `Fc1cc(F)cc(-c2nc(-c3cccc(-c4ccn[nH]4)c3)no2)c1`, for which the RP-LC retention time was 1060 s.
The same measure for `COc1ccc(Cl)cc1C(=O)NCCCOc1cccc2cccnc12`: 611 s.
As for `NC(=O)C1CCN(C(=O)CCc2nnc3c4cc(-c5ccc(Cl)cc5)nn4ccn23)CC1`, the figure is 671 s; as for `CCC(=O)N(C1CCOCC1)C1CCN(S(=O)(=O)c2cccnc2)CC1`, 807 s; as for `CC(C)S(=O)(=O)N1CC(N(C)Cc2cccnc2)C1`, 562 s.
The same measure for `Cc1ccc(-n2nc(OC(C)C(=O)NCc3ccco3)ccc2=O)cc1C` (centres undefined): 748 s; for `Cn1c(-c2cccc(C(=O)NCc3cc(F)ccc3F)c2)nc2cccnc21`: 726 s; for `O=C(Cc1ccc(NC(=O)C2COc3ccccc3O2)cc1)NCC(F)(F)F` (centres undefined): 576 s.
`Cc1ccc2nc(-c3ccc(C)c(NC(=O)C(C)C)c3)[nH]c2c1` came in with an RP-LC retention time of 654 s.
As for `COc1ccc(Cl)cc1NC(=O)Nc1ccc2c(c1)C(=O)N(C)CCO2`, the figure is 766 s; as for `COc1ccccc1-c1noc(C2CCCN2C(=O)CSc2ccncc2)n1` (centres undefined), 611 s; as for `CCc1nn2c(CNS(=O)(=O)c3ccc(C)c(C)c3)c(-c3ccccc3)nc2s1`, 984 s.
As for `Cc1ccc(NC(=O)C2CC(=O)N(CCc3c[nH]c4ccc(F)cc34)C2)cc1C` (centres undefined), the figure is 867 s; as for `COc1cccc(N2CCN(c3ccnc(SCC(=O)Nc4ccc(F)c(Cl)c4)n3)CC2)c1`, 806 s; as for `Cc1ccc(-c2noc(-c3nnc(NCCCN4CCOCC4)c4ccccc34)n2)cc1`, 735 s.
`CCCNC(=O)C1CCCN(c2ccc(SCC(=O)Nc3ccccc3Br)nn2)C1` (centres undefined) yielded an RP-LC retention time of 670 s.
Molecule `O=c1n(Cc2ccccc2Cl)nc2c(S(=O)(=O)N3CCc4ccccc4C3)cccn12` returned an RP-LC retention time of 1030 s.
The same measure for `COc1ccccc1N1CCN(C(=O)c2cccc([N+](=O)[O-])c2)CC1`: 786 s.
As for `COc1ncccc1C(=O)N1CCC(C(=O)Nc2cc(C)on2)CC1`, the figure is 622 s.
The same measure for `CCc1ccc(S(=O)(=O)N2CCN(CCc3cn(CC)c4ncccc34)CC2)cc1`: 690 s; for `C=C1C(=O)O[C@@H]2[C@H]3O[C@]3(C)CC/C=C(/C)CC[C@@H]12`: 972 s; for `CCCCNC(=O)C1CCCN(c2nnc3ccc(C(F)(F)F)cn23)C1` (centres undefined): 751 s.
The molecule `O=C1NCCCn2cc(S(=O)(=O)N3CCN(c4ccccn4)CC3)cc21` returned an RP-LC retention time of 550 s.
The same measure for `Cc1ccn2c(NC(=O)COc3ccccc3)c(-c3ccc(F)cc3)nc2c1`: 689 s; for `Cc1oc(-c2[nH]ncc2C(=O)N(C)C)cc1S(=O)(=O)NCc1cccnc1`: 559 s.
The same measure for `O=C(c1cccc2[nH]cc(CN3CCCC3)c12)N1CCN(c2ccccc2)CC1`: 706 s.
As for `CCCCn1cc(S(=O)(=O)Nc2ccccc2F)c2cccnc21`, the figure is 922 s; as for `CC(C)(C)NC(=O)c1csc(-c2ccc(N3CCCC3)nc2)n1`, 670 s; as for `O=c1ccc(S(=O)(=O)N2CCCC2)cn1Cc1ccccc1`, 602 s.
Consider `CC(=O)Nc1ccc(NC(=O)C2CCN(S(=O)(=O)c3c(C)nn(-c4ccccc4)c3C)CC2)cc1`, for which the RP-LC retention time came out at 754 s.
The same measure for `Cc1ncsc1CN1CCCC(c2nncn2-c2ccccc2)C1` (centres undefined): 496 s; for `Cc1ccc(CNC(=O)Cn2cnc3nc(N4CCC(C(=O)NC5CC5)CC4)sc3c2=O)cc1`: 708 s.
Consider `CC(C)Oc1ccc(-c2noc(Cn3c(=O)n(-c4ccccc4)c(=O)c4sccc43)n2)cc1`, for which the RP-LC retention time stood at 1100 s.
The molecule `COc1ccc(-c2nc3cnccn3c2Nc2ccc(C)cc2C)cc1OC` showed an RP-LC retention time of 871 s.
For the molecule `O=C(Cc1cccc(C(F)(F)F)c1)N1CCN(c2nnc3ccccn23)CC1`, the RP-LC retention time stood at 702 s.
The same measure for `CCCCNC(=O)c1cc2n(n1)CC(C)(C(=O)NCc1ccc(F)cc1)N(C)C2=O` (centres undefined): 725 s.
The same measure for `Cc1noc(C2CN(C(=O)Nc3ccccc3F)CC23CCOCC3)n1` (centres undefined): 694 s.
As for `O=C(Cn1c(=O)n(C2CCCCC2)c2ncccc21)NCc1ccccc1`, the figure is 895 s; as for `CCC(NC(=O)c1cn2ccc(C)cc2n1)c1cccs1` (centres undefined), 685 s; as for `Clc1cc(Cl)cc(-c2ccc(CNCc3cccnc3)o2)c1`, 733 s.
On to `CCN1CCCn2cc(S(=O)(=O)Nc3ccc(F)c(F)c3)cc2C1=O`, for which the RP-LC retention time is 768 s.
As for `COc1ccc(-c2noc(-c3nn(-c4ccc(F)c(F)c4)ccc3=O)n2)cc1OC`, the RP-LC retention time came out at 835 s.
The same measure for `CCc1ccc(C(=O)Nc2ccc3c(c2)Sc2ncccc2C(=O)N3CC)cc1`: 936 s.
The same measure for `Cc1nc2nc(-c3ccc(C(C)(C)C)cc3)nn2c(C)c1CC(=O)N1CCOCC1`: 832 s; for `CNC(=O)c1ccc(-c2nc3cc(NS(=O)(=O)c4ccccc4F)ccc3n2C)cc1`: 616 s.
The same measure for `O=C(Cc1ccccc1F)N1CCCC1c1nc(-c2cccc(C(F)(F)F)c2)no1` (centres undefined): 1110 s.
As to `Cc1cccc(-c2noc(-c3nn(CC(=O)N4CCCC4)c4ccccc34)n2)c1`, the RP-LC retention time turned out to be 1080 s.
The same measure for `O=c1[nH]c2ccc(NCc3ccc(-c4ccccc4Cl)o3)cc2[nH]1`: 717 s.
The molecule `Cc1ccccc1-c1nc2cnccn2c1NCCC(=O)NCc1ccccc1F` had an RP-LC retention time of 660 s.
As for `Cc1noc(-c2nn(C)c3c2CN(C(=O)c2ccccc2Br)CC3)n1`, the figure is 725 s.
The same measure for `CC1=C(c2ccc(C)cc2)S(=O)(=O)N=C1N1CCCN(C(=O)CC(C)(C)C)CC1`: 888 s; for `CN(CC1CCOC1)C(=O)Nc1cccc(F)c1` (centres undefined): 660 s.
As for `COc1ccccc1CC(=O)N1CCCn2nc(-c3ccc(Cl)cc3)cc2C1`, the figure is 1010 s; as for `CC1(C(=O)NC2CCCC2)Cn2c(ccc2-c2ccco2)C(=O)N1Cc1cccnc1` (centres undefined), 657 s; as for `C=CCn1nc2c(C)c(C)nc(-c3cccnc3)n2c1=O`, 631 s.
On to `Cc1ccc(Sc2nccnc2N2CCCC(C(=O)NCc3ccc4c(c3)OCO4)C2)cc1` (centres undefined), for which the RP-LC retention time was 1060 s.
The same measure for `O=C(c1ccc2c(c1)CCCN2S(=O)(=O)c1ccccc1)N1CCCC1`: 852 s; for `Cc1cccnc1NC(=O)c1c(O)c2cc(F)cc3c2n(c1=O)C(C)CC3` (centres undefined): 848 s.
The same measure for `Cc1onc(-c2c(Cl)cccc2Cl)c1C(=O)N1CCN(C)CC1`: 609 s; for `CC(C)CNC(=O)NC(C(=O)N1CCc2ccccc21)c1ccccc1` (centres undefined): 864 s.
As for `Cc1ccccc1OCC(O)CN1CCN(Cc2ccc3c(c2)OCO3)CC1` (centres undefined), the figure is 566 s; as for `Cc1nn2c(CNC(=O)c3cccnc3)c(-c3ccccc3)nc2s1`, 655 s; as for `COc1cccc(NC(=O)C2CCN(S(=O)(=O)c3cc(-c4noc(C5CC5)n4)cs3)CC2)c1`, 1000 s.
With `O=C(Nc1cccc(OCc2nnc(-c3ccccc3)o2)c1)c1cncc(Br)c1`, the RP-LC retention time amounted to 912 s.
As for `Cc1nc(NC2CCCCC2)sc1C(=O)Nc1cccc(F)c1`, the figure is 872 s; as for `CC(=O)N1CCCc2cc(S(=O)(=O)N3CCC(C(=O)N4CCc5ccccc5C4)CC3)ccc21`, 843 s.
With `Cc1sc(NC(=O)C(C)C)nc1-c1ccc2c(c1)NC(=O)CO2`, the RP-LC retention time amounted to 750 s.
As for `Cc1noc([C@@H]2CN(Cc3ccccc3C(F)(F)F)C[C@H]2CO)n1`, the figure is 604 s; as for `Cc1cccc(C)c1NC(=O)Cn1c(=O)nc(N2CCC(C)CC2)c2ccccc21`, 819 s; as for `CCCNC(=O)C1CCCN(c2nc3ccsc3c(=O)n2-c2cccc(OC)c2)C1` (centres undefined), 735 s.
As for `CC(C)Cc1cc(-c2nnc3sc(-c4cccc(N(C)C)c4)nn23)n[nH]1`, the figure is 1020 s; as for `Cc1cccc(-c2noc(-c3sc4ncn(CC(=O)N5CCCC5)c(=O)c4c3C)n2)c1`, 1020 s.
As for `CCOc1ccc(NC(=O)Cc2c(C)nn(-c3nc(C)cs3)c2C)cc1`, the figure is 974 s; as for `Cc1ccc2[nH]c(=O)c(CCC(=O)N3CCCN(c4ncccn4)CC3)cc2c1`, 654 s.
`C=CCNC(=O)Cc1c(C)n(CC=C)c2nc(-c3ccccc3)nn2c1=O`: the RP-LC retention time stood at 740 s.
The same measure for `Cc1ccc(C)c(-c2coc(-c3ccc(NC(=O)Cc4cccs4)cc3)n2)c1`: 1230 s.
`CCNC(=O)Nc1ccc2c(c1)CN(C(=O)Nc1ccc3c(c1)OCCO3)CCO2` yielded an RP-LC retention time of 706 s.
The same measure for `O=C(NC1CC1)c1ccc(OCC2CCCN2C(=O)Cc2ccc(F)cc2)cc1` (centres undefined): 813 s; for `O=C(NCCCN1CCc2ccccc2C1)C1CCCN(c2nnc(-n3cccc3)s2)C1` (centres undefined): 593 s.
